≈ marks a conversion by molar mass, not a printed value. Where “and” joins values, the source holds several entries; their conditions need not be identical. Equal entries are not always repeated. Entries after “also recorded” stand apart in the source; their conditions may differ. Where two headings read alike, the source gives them in different places.
Legend:
[1] = tested on: C. elegans (strain N2); test: C. elegans contact assay (NGM-agar, 24-well); format: in vivo
[2] = tested on: C. elegans; test: Nematicidal activity of ethanolamine-like compounds on NGM plates (L4 P0, F1 phenotype); format: in vivo, Caenorhabditis elegans
[3] = tested on: C. elegans; test: C. elegans liquid (well) assay; format: in vivo; conditions: Caenorhabditis elegans, read-out: Well EC50
[4] = tested on: C. elegans; test: C. elegans agar (plate) assay; format: in vivo; conditions: Caenorhabditis elegans, read-out: Plate EC50
[5] = tested on: C. elegans PEAMT2 RNAi-generated mutants; conditions: in vivo
[6] = tested on: C. elegans PEAMT1 RNAi-generated mutants; format: in vivo; conditions: for rescue of PEAMT1 mutants: 5 mM
[7] = tested on: P. falciparum; conditions: cited from earlier work
[8] = molecular target: P. falciparum PEAMT (Plasmodium falciparum, UniProt Q8IDQ9); conditions: cited from earlier work
P. falciparum PEAMT, sequence (Q8IDQ9 whole entry): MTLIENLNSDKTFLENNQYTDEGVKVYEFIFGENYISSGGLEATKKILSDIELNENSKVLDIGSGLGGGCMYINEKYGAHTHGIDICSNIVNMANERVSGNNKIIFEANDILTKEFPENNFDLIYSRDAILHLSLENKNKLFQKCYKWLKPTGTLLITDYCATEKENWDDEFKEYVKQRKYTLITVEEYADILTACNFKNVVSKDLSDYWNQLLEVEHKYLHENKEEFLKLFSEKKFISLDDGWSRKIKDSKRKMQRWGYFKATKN

[9] = tested on: cucumber seedling; test: Miniaturized greenhouse assay, phytotoxicity rating; conditions: for Ptox 40 (phytotoxicity rating): 40 ppm; for Ptox 200 (phytotoxicity rating): 200 ppm
[10] = tested on: Meloidogyne incognita J2 larvae; test: Miniaturized greenhouse assay on cucumber seedlings, root gall rating; format: in vivo; conditions: for Gall 40 (gall rating): 40 ppm; for Gall 200 (gall rating): 200 ppm
[11] = tested on: Cephalobus sp.; test: Nematicidal activity against other nematodes (F1 phenotype); format: in vivo
[12] = tested on: A. ellesmerensis; test: as above; format: in vivo, Acrobiloides ellesmerensis
[13] = Caenorhabditis elegans, average number of adults in 4 replicate wells 96 hours after challenge, 20° C., read-out: EC50
[14] = L4 P0 on NGM plates, 23° C., visual observation over several days
[15] = rating scale 0-3 (% plant weight reduction)
[16] = 10 days after inoculation, rating scale 0-3 (% root mass galled)

Molecule: OCCNc1ccccc1 [Compound 3733, N-(2-Hydroxyethyl)aniline]
- EC50 [1, 13]: 4200 µM
- F1 PHENOTYPE ([2]; C. elegans, 10 mM): L1/L2 arrest/lethality
- nematicidal activity against C. elegans [2, 14]: showed nematicidal activity

Molecule: O=[N+]([O-])c1ccc(N=Nc2ccccc2)cc1 [DC3898, (4-Nitro-phenyl)-phenyl-diazene]
- EC50 ([3]; liquid (well) assay, 20° C.): 1.6 µg/mL (≈ 7.04 µM)

Molecule: CN(C)c1ccc(/N=N/c2cccc(Cl)c2)cc1 [DC3853, [4-(3-Chloro-phenylazo)-phenyl]-dimethyl-amine]
- EC50 ([4]; agar (plate) assay, 20° C.): 0.4 µg/mL (≈ 1.54 µM)
- EC50 ([3]; liquid (well) assay, 20° C.): 0.4 µg/mL (≈ 1.54 µM)

Molecule: COc1ccc(NCCS(=O)(=O)F)cc1 [Compound 3736, 2-4-methoxy-phenylaminoethanesulfonyl fluoride]
- EC50 ([1]; in vivo, read-out: EC50): 500 µM

Molecule: CN(C)c1ccc(C(=O)c2ccccc2)cc1 [DC3890, (4-Dimethylamino-phenyl)-phenyl-methanone]
- EC50 ([3]; liquid (well) assay, 20° C.): 12 µg/mL (≈ 53.3 µM)

Molecule: CCNc1ccccc1 [Compound 3766, N-ethylaniline]
- EC50 [1, 13]: 360 µM

Molecule: CNCCO [MME, monomethylethanolamine]
- F1 phenotype PEAMT2 dsRNA [5]: L1/L2 arrest/lethality
- rescue of PEAMT1 mutants [6]: rescued
- F1 phenotype PEAMT1 dsRNA ([6]; in vivo): Fertile adults

Molecule: NCC(O)c1ccccc1 (stereo not drawn) [2-amino-1-phenylethanol]
- F1 PHENOTYPE ([2]; C. elegans, 25 mM): Wild-type development
- nematicidal activity against C. elegans [2, 14]: no nematicidal effect

Molecule: O=C1CSC(=S)N1c1ccc(/N=N/c2ccc([N+](=O)[O-])cc2)cc1 [DC3833, 3-[4-(4-Nitro-phenylazo)-phenyl]-2-thioxo-thiazolidin-4-one]
- EC50 ([4]; agar (plate) assay, 20° C.): 6.2 µg/mL (≈ 17.3 µM)
- EC50 ([3]; liquid (well) assay, 20° C.): 12.5 to 25 µg/mL (≈ 34.9 to 69.8 µM)

Molecule: CN(C)c1ccc(/N=N/c2ccc(NCCS(=O)(=O)F)cc2)cc1 [Compound 3767, 2-[4-(4-dimethylamino-phenylazo)-phenylamino]-ethanesulfonyl fluoride]
- EC50 ([1]; Caenorhabditis elegans, 96 h): 7 µM

Molecule: CCCCCCCCCCCCCCCCOP(=O)([O-])OCC[N+](C)(C)C [miltefosine]
- parasite proliferation within human erythrocytes [7]: inhibits parasite proliferation
- inhibition of the plasmodium PEAMT enzyme [8]: inhibited

Molecule: CCNc1ccc(/N=N/c2ccc(C)cc2)cc1 [DC3801, Ethyl-(4-p-tolylazo-phenyl)-amine]
- EC50 ([4]; agar (plate) assay, 20° C.): 0.4 µg/mL (≈ 1.67 µM)
- EC50 ([3]; liquid (well) assay, 20° C.): 0.2 to 0.4 µg/mL (≈ 0.836 to 1.67 µM)
- Ptox 40 (phytotoxicity rating) [9, 15]: 1.67
- Ptox 200 (phytotoxicity rating) [9, 15]: 3.00
- Gall 40 (gall rating) [10, 16]: 1.33
- Gall 200 (gall rating) [10, 16]: 0.00

Molecule: CN(C)c1ccc(/C=C/C(=O)c2ccccc2)cc1 [DC3901, 3-(4-Dimethylamino-phenyl)-1-phenyl-propenone]
- EC50 ([3]; liquid (well) assay, 20° C.): 12.5 µg/mL (≈ 49.7 µM)

Molecule: Cc1ccccc1/N=N/c1ccc(N(C)C)cc1 [DC3832, Dimethyl-(4-o-tolylazo-phenyl)-amine]
- EC50 ([4]; agar (plate) assay, 20° C.): 1.6 µg/mL (≈ 6.69 µM)
- EC50 ([3]; liquid (well) assay, 20° C.): 1.5 to 3.1 µg/mL (≈ 6.27 to 13 µM)

Molecule: CNc1ccc(N=Nc2ccccc2)cc1 [DC3845, Methyl-(4-phenylazo-phenyl)-amine]
- EC50 [4]: 0.4 µg/mL (≈ 1.89 µM)
- EC50 [3]: 0.4 to 0.8 µg/mL (≈ 1.89 to 3.79 µM)
- Ptox 40 (phytotoxicity rating) [9]: 1.00
- Ptox 200 (phytotoxicity rating) [9]: 3.00
- Gall 40 (gall rating) [10]: 0.33
- Gall 200 (gall rating) [10]: 0.00

Molecule: O=S(=O)(F)CCNc1ccccc1 [Compound 3754, 2-phenylaminoethanesulfonyl fluoride]
- EC50 ([1]; in vivo, read-out: EC50): 940 µM and 570 µM

Molecule: COc1ccc(/N=N/c2ccc3c(c2)CCCN3C)cc1 [DC3821, (4-Methoxy-phenyl)-(1-methyl-1,2,3,4-tetrahydro-quinolin-6-yl)-diazene]
- EC50 ([4]; agar (plate) assay, 20° C.): 1.6 µg/mL (≈ 5.69 µM)
- EC50 ([3]; liquid (well) assay, 20° C.): 0.8 to 1.6 µg/mL (≈ 2.84 to 5.69 µM)

Molecule: N[C@@H](CO)Cc1ccccc1 [Compound 3704, D-Phenylalaninol]
- F1 PHENOTYPE ([11]; in vivo): L1/L2 arrest/lethality
- F1 PHENOTYPE ([12]; in vivo): L1/L2 arrest/lethality
- EC50 ([1]; Caenorhabditis elegans, 96 h): 2500 µM
- F1 PHENOTYPE ([2]; in vivo): L1/L2 arrest/lethality
- nematicidal activity against C. elegans ([2]; in vivo): showed nematicidal activity

Molecule: OCCNCc1ccccc1 [Compound 3702, 2-Benzylaminoethanol]
- EC50 [1, 13]: 3400 µM

Molecule: CN1CCCc2cc(/N=N/c3ccc(Br)cc3)ccc21 [DC3819, (4-Bromo-phenyl)-(1-methyl-1,2,3,4-tetrahydro-quinolin-6-yl)-diazene]
- EC50 ([4]; agar (plate) assay, 20° C.): 0.8 µg/mL (≈ 2.42 µM)
- EC50 ([3]; liquid (well) assay, 20° C.): 0.4 to 0.8 µg/mL (≈ 1.21 to 2.42 µM)

Molecule: O=S(=O)(F)CCn1cnc2ccccc21 [Compound 3747, 2-Benzoimidazol-1-yl-ethanesulfonyl fluoride]
- EC50 ([1]; in vivo, read-out: EC50): 1400 µM

Molecule: 2-[(4-phenylazo)phenylanilino]ethanesulfonamide [Compound 3770]
- EC50 ([1]; average number of adults in 4 replicate wells 96 hours after challenge, 20° C., read-out: EC50): 20 µM

Molecule: CN(C)CCO [DME, dimethylethanolamine]
- F1 phenotype PEAMT2 dsRNA [5]: Sterility; also recorded: L1/L2 arrest/lethality
- rescue of PEAMT1 mutants [6]: rescued
- F1 phenotype PEAMT1 dsRNA ([6]; in vivo): Fertile adults
- rescue of the sterility associated with PEAMT1 RNAi ([6]; in vivo): rescues the sterility

Molecule: CN(C)c1ccc(/N=N/c2ccccn2)cc1 [DC3791, Dimethyl-[4-(pyridin-2-ylazo)-phenyl]-amine]
- EC50 ([4]; agar (plate) assay, 20° C.): 12.5 to 25 µg/mL (≈ 55.2 to 110 µM)
- EC50 ([3]; liquid (well) assay, 20° C.): 25 to 50 µg/mL (≈ 110 to 221 µM)

Molecule: Cc1ccc(/N=N/c2ccc(N(C)C)cc2)cc1 [DC3785, Dimethyl-(4-p-tolylazo-phenyl)-amine]
- EC50 ([4]; agar (plate) assay, 20° C.): > 100 µg/mL
- EC50 ([3]; liquid (well) assay, 20° C.): 6.3 to 12.5 µg/mL (≈ 26.3 to 52.2 µM)

Molecule: O=S(=O)(F)CCNc1ccc(Cl)cc1 [Compound 3738, 2-4-chlorophenylaminoethanesulfonyl fluoride]
- EC50 ([1]; in vivo, read-out: EC50): 82 µM

Molecule: O=[N+]([O-])c1ccc(/N=N/c2ccc(O)cc2)cc1 [DC3844, 4-(4-Nitro-phenylazo)-phenol]
- EC50 ([4]; agar (plate) assay, 20° C.): 6.25 µg/mL (≈ 25.7 µM)
- EC50 ([3]; liquid (well) assay, 20° C.): 3.1 to 6.2 µg/mL (≈ 12.7 to 25.5 µM)

Molecule: CN(C)c1ccc(/N=N/c2ccccn2)c(O)c1 [DC3829, 5-Dimethylamino-2-(pyridin-2-ylazo)-phenol]
- EC50 ([4]; agar (plate) assay, 20° C.): 3.2 µg/mL (≈ 13.2 µM)
- EC50 ([3]; liquid (well) assay, 20° C.): 6.2 to 12.5 µg/mL (≈ 25.6 to 51.6 µM)

Molecule: O=C1C=CC(=O)N1c1ccc(/N=N/c2ccccc2)cc1 [DC3792, 1-(4-Phenylazo-phenyl)-pyrrole-2,5-dione]
- EC50 ([4]; agar (plate) assay, 20° C.): > 100 µg/mL
- EC50 ([3]; liquid (well) assay, 20° C.): 3.2 to 6.3 µg/mL (≈ 11.5 to 22.7 µM)

Molecule: O=C1CCC(=O)N1CCS(=O)(=O)F [Compound 3743, 2,5-Dioxo-1-pyrrolidineethanesulfonyl fluoride]
- EC50 ([1]; in vivo, read-out: EC50): 1300 µM

Molecule: CCN(C)c1ccc(/N=N/c2ccccc2)cc1 [Compound 3761, 4-N-ethyl-N-methylaminoazobenzene]
- EC50 ([4]; agar (plate) assay, 20° C.): 0.8 µg/mL (≈ 3.34 µM)
- EC50 ([3]; liquid (well) assay, 20° C.): 6.3 to 12.5 µg/mL (≈ 26.3 to 52.2 µM)
- Ptox 40 (phytotoxicity rating) [9, 15]: 0.00
- Ptox 200 (phytotoxicity rating) [9, 15]: 1.00
- Gall 40 (gall rating) [10, 16]: 0.67
- Gall 200 (gall rating) [10, 16]: 0.00
- EC50 [1, 13]: 7 µM

Molecule: Cc1cc(N(C)C)ccc1/N=N/c1ccccc1 [DC3787, Dimethyl-(3-methyl-4-phenylazo-phenyl)-amine]
- EC50 ([4]; agar (plate) assay, 20° C.): 1.6 µg/mL (≈ 6.69 µM)
- EC50 ([3]; liquid (well) assay, 20° C.): 0.4 to 0.78 µg/mL (≈ 1.67 to 3.26 µM)

Molecule: CCNc1ccc(/N=N/c2ccc(Br)cc2)cc1 [DC3800, [4-(4-Bromo-phenylazo)-phenyl]-ethyl-amine]
- EC50 ([4]; agar (plate) assay, 20° C.): 0.4 µg/mL (≈ 1.31 µM)
- EC50 ([3]; liquid (well) assay, 20° C.): 0.2 to 0.4 µg/mL (≈ 0.657 to 1.31 µM)
- Ptox 40 (phytotoxicity rating) [9, 15]: 0.00
- Ptox 200 (phytotoxicity rating) [9, 15]: 2.67
- Gall 40 (gall rating) [10, 16]: 1.33
- Gall 200 (gall rating) [10, 16]: 0.00

Molecule: NCCO [EA, ethanolamine]
- F1 phenotype PEAMT2 dsRNA [5]: L1/L2 arrest/lethality
- F1 phenotype PEAMT1 dsRNA ([6]; in vivo): L1/L2 arrest/lethality

Molecule: CN(C)c1ccc(/N=N/c2ccccc2)cc1 [DC3783, Dimethyl-(4-phenylazo-phenyl)-amine]
- EC50 [4]: 1.6 µg/mL (≈ 7.1 µM)
- EC50 [3]: 0.4 to 0.78 µg/mL (≈ 1.78 to 3.46 µM)

Molecule: O=S(=O)(F)CCn1nnc2ccccc21 [Compound 3745, 2-Benzotriazol-1-yl-ethanesulfonylfluoride]
- EC50 ([1]; in vivo, read-out: EC50): 1700 µM and 1340 µM

Molecule: CC(C)(C)NCCO [Compound 3703, 2-(tert-Butylamino)ethanol]
- F1 PHENOTYPE ([11]; Cephalobus sp., 10 mM): L1/L2 arrest/lethality
- F1 PHENOTYPE ([12]; A. ellesmerensis, 10 mM): L1/L2 arrest/lethality
- EC50 [1, 13]: 4100 µM
- F1 PHENOTYPE ([2]; C. elegans, 10 mM): L1/L2 arrest/lethality
- nematicidal activity against C. elegans [2, 14]: showed nematicidal activity

Molecule: CC(=O)Nc1ccc(/N=N/c2ccccc2)cc1Cl [DC3796, N-(2-Chloro-4-phenylazo-phenyl)-acetamide]
- EC50 ([4]; agar (plate) assay, 20° C.): 6.3 µg/mL (≈ 23 µM)
- EC50 ([3]; liquid (well) assay, 20° C.): 3.2 to 6.3 µg/mL (≈ 11.7 to 23 µM)

From patent US20050203067A1, “Pesticidal compositions and methods” (priority 2003, published 2005)
